Where a name gives a salt, the structure may show the parent alone.
Legend:
Assay type in all cases: cell-based
[1] = tested on: MDA-MB-468 cells (target non-expressing); assay: In vitro cell assay (MTS cell viability), MDA-MB-468; conditions: Homo sapiens, MDA-MB-468, 96 h, read-out: MDA-MB-468 IC50 (nM)
Protocol: Target expressing (BT474 (breast cancer), N87 (gastric cancer), HCC1954 (breast cancer), MDA-MB-361-DYT2 (breast cancer)) or non-expressing (MDA-MB-468) cells were seeded in 96-well cell culture plates for 24 hours before treatment. Cells were treated with 3-fold serially diluted antibody-drug conjugates or free compounds (i.e., no antibody conjugated to the drug) in duplicate at 10 concentrations. Cell viability was determined by CellTiter 96® AQueous One Solution Cell Proliferation MTS Assay (Promega, Madison Wis.) 96 hours after treatment. Relative cell viability was determined as percentage of untreated control. IC50 values were calculated using a four parameter logistic model #203 with XLfit v4.2 (IDBS, Guildford, Surry, UK). The potency ranged upward from 0.0002 nm. Similar procedures and techniques were employed.

[2] = tested on: N87 (gastric cancer) cells; assay: In vitro cell assay (MTS cell viability), N87; conditions: 96 h, free compounds (natural products and synthetic analogs); cell viability 96 hours after treatment
Procedure, shortened: (§1)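 Cells seeded 24 h, then treated with antibody-drug conjugates or free drug, 3-fold serial dilutions at 10 concentrations in duplicate. Viability by MTS at 96 h as percent of untreated control; IC50 from four-parameter logistic fit.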

[3] = tested on: BT474 (breast cancer) cells; assay: In vitro cell assay (MTS cell viability), BT474; conditions: Homo sapiens, BT-474; free compounds (natural products and synthetic analogs); cell viability 96 hours after treatment
Procedure, shortened: as §1

[4] = tested on: MDA-MB-361-DYT2 (breast cancer) cells; assay: In vitro cell assay (MTS cell viability), MDA-MB-361-DYT2; conditions: 96 h, free compounds (natural products and synthetic analogs); cell viability 96 hours after treatment
Procedure, shortened: as §1

Row | SMILES | IC50 [1] | IC50 [2] | IC50 [3] | IC50 [4]
1 | CCCNC(=O)C[C@@H]1C[C@@]2(CO2)C[C@@H](/C=C/C(C)=C/C[C@@H]2O[C@H](C)[C@H](NC(=O)/C=C\[C@H](C)OC(C)=O)C[C@@H]2C)O1 [#B64, (2S,3Z)-5-({(2R,3R,5S,6S)-2,5-dimethyl-6-[(2E,4E)-3-methyl-5-{(3S,5S,7S)-7-[2-oxo-2-(propylamino)ethyl]-1,6-dioxaspiro[2.5]oct-5-yl}penta-2,4-dien-1-yl]tetrahydro-2H-pyran-3-yl}amino)-5-oxopent-3-en-2-yl acetate] | 1.38 nM | 24.8 nM | 5.26 nM | 
2 | CC(=O)O[C@@H](C)/C=C\C(=O)N[C@@H]1C[C@H](C)[C@H](C/C=C(C)/C=C/[C@@H]2C[C@]3(CO3)C[C@@H](CC(=O)NCc3ccccc3)O2)O[C@@H]1C [#B101, (2S,3Z)-5-({(2R,3R,5S,6S)-6-[(2E,4E)-5-{(3S,5S,7S)-7-[2-(benzylamino)-2-oxoethyl]-1,6-dioxaspiro[2.5]oct-5-yl}-3-methylpenta-2,4-dien-1-yl]-2,5-dimethyltetrahydro-2H-pyran-3-yl}amino)-5-oxopent-3-en-2-yl acetate] |  | 10.4 nM | 25.6 nM | 34.8 nM
3 | CSCCN(C)C(=O)C[C@@H]1C[C@@]2(CO2)C[C@@H](/C=C/C(C)=C/C[C@@H]2O[C@H](C)[C@H](NC(=O)/C=C\[C@H](C)OC(C)=O)C[C@@H]2C)O1 [#B102, (2S,3Z)-5-{[(2R,3R,5S,6S)-2,5-dimethyl-6-{(2E,4E)-3-methyl-5-[(3S,5S,7S)-7-(2-{methyl[2-(methylsulfanyl)ethyl]amino}-2-oxoethyl)-1,6-dioxaspiro[2.5]oct-5-yl]penta-2,4-dien-1-yl}tetrahydro-2H-pyran-3-yl]amino}-5-oxopent-3-en-2-yl acetate] |  | 7.79 nM | 10.7 nM | 32.9 nM
4 | CSCCNC(=O)C[C@@H]1C[C@@]2(CO2)C[C@@H](/C=C/C(C)=C/C[C@@H]2O[C@H](C)[C@H](NC(=O)/C=C\[C@H](C)OC(C)=O)C[C@@H]2C)O1 [#B103, (2S,3Z)-5-{[(2R,3R,5S,6S)-2,5-dimethyl-6-{(2E,4E)-3-methyl-5-[(3S,5S,7S)-7-(2-{[2-(methylsulfanyl)ethyl]amino}-2-oxoethyl)-1,6-dioxaspiro[2.5]oct-5-yl]penta-2,4-dien-1-yl}tetrahydro-2H-pyran-3-yl]amino}-5-oxopent-3-en-2-yl acetate] |  | 1.6 nM | 4.03 nM | 4.25 nM
5 | CC(=O)O[C@@H](C)/C=C\C(=O)N[C@@H]1C[C@H](C)[C@H](C/C=C(C)/C=C/[C@@H]2C[C@]3(CO3)C[C@@H](CC(=O)NCCS(C)(=O)=O)O2)O[C@@H]1C [#B104, (2S,3Z)-5-{[(2R,3R,5S,6S)-2,5-dimethyl-6-{(2E,4E)-3-methyl-5-[(3S,5S,7S)-7-(2-{[2-(methylsulfonyl)ethyl]amino}-2-oxoethyl)-1,6-dioxaspiro[2.5]oct-5-yl]penta-2,4-dien-1-yl}tetrahydro-2H-pyran-3-yl]amino}-5-oxopent-3-en-2-yl acetate] |  | 1.41 nM | 4.02 nM | 9.13 nM
6 | CC(=O)/C=C\C(=O)N[C@@H]1C[C@H](C)[C@H](C/C=C(C)/C=C/[C@@H]2C[C@]3(CO3)C[C@@H](CC(N)=O)O2)O[C@@H]1C [#B129, (2Z)—N-[(2R,3R,5S,6S)-6-{(2E,4E)-5-[(3S,5S,7S)-7-(2-amino-2-oxoethyl)-1,6-dioxaspiro[2.5]oct-5-yl]-3-methylpenta-2,4-dien-1-yl}-2,5-dimethyltetrahydro-2H-pyran-3-yl]-4-oxopent-2-enamide] |  | > 100 nM | > 100 nM | > 100 nM
7 | CSCCN(C)C(=O)O[C@@H](C)/C=C\C(=O)N[C@@H]1C[C@H](C)[C@H](C/C=C(C)/C=C/[C@H]2O[C@H](CC(N)=O)C[C@@]3(CO3)[C@@H]2O)O[C@@H]1C [#B130, (2S,3Z)-5-{[(2R,3R,5S,6S)-6-{(2E,4E)-5-[(3R,4R,5R,7S)-7-(2-amino-2-oxoethyl)-4-hydroxy-1,6-dioxaspiro[2.5]oct-5-yl]-3-methylpenta-2,4-dien-1-yl}-2,5-dimethyltetrahydro-2H-pyran-3-yl]amino}-5-oxopent-3-en-2-yl methyl[2-(methylsulfanyl)ethyl]carbamate] |  | 2.98 nM | 1.5 nM | 4.5 nM
8 | CC(/C=C/[C@H]1O[C@H](CC(N)=O)C[C@@]2(CO2)[C@@H]1O)=C\C[C@@H]1O[C@H](C)[C@H](NC(=O)/C=C\[C@H](C)OC(=O)N2CCCCC2)C[C@@H]1C [#B134, (2S,3Z)-5-{[(2R,3R,5S,6S)-6-{(2E,4E)-5-[(3R,4R,5R,7S)-7-(2-amino-2-oxoethyl)-4-hydroxy-1,6-dioxaspiro[2.5]oct-5-yl]-3-methylpenta-2,4-dien-1-yl}-2,5-dimethyltetrahydro-2H-pyran-3-yl]amino}-5-oxopent-3-en-2-yl piperidine-1-carboxylate] |  | 1.8 nM | 1.18 nM | 2.02 nM
9 | CC(/C=C/[C@@H]1C[C@]2(CO2)C[C@@H](CC(N)=O)O1)=C\C[C@@H]1O[C@H](C)[C@H](NC(=O)/C=C\[C@H](C)OC(=O)N2CCNCC2)C[C@@H]1C [#B136, (2S,3Z)-5-{[(2R,3R,5S,6S)-6-{(2E,4E)-5-[(3S,5S,7S)-7-(2-amino-2-oxoethyl)-1,6-dioxaspiro[2.5]oct-5-yl]-3-methylpenta-2,4-dien-1-yl}-2,5-dimethyltetrahydro-2H-pyran-3-yl]amino}-5-oxopent-3-en-2-yl piperazine-1-carboxylate, acetate salt] |  | 90.1 nM | 25.5 nM | > 100 nM
10 | CC(/C=C/[C@@H]1C[C@]2(CO2)C[C@@H](CC(N)=O)O1)=C\C[C@@H]1O[C@H](C)[C@H](NC(=O)/C=C\[C@H](C)OC(=O)N2CCN(C)CC2)C[C@@H]1C [#B137, (2S,3Z)-5-{[(2R,3R,5S,6S)-6-{(2E,4E)-5-[(3S,5S,7S)-7-(2-amino-2-oxoethyl)-1,6-dioxaspiro[2.5]oct-5-yl]-3-methylpenta-2,4-dien-1-yl}-2,5-dimethyltetrahydro-2H-pyran-3-yl]amino}-5-oxopent-3-en-2-yl-4-methylpiperazine-1-carboxylate] |  | 5.59 nM | 1.8 nM | 10.3 nM
11 | CC(/C=C/[C@@H]1C[C@]2(CO2)C[C@@H](CN)O1)=C\C[C@@H]1O[C@H](C)[C@H](NC(=O)/C=C\[C@H](C)O)C[C@@H]1C [#B139, (2Z,4S)—N-[(2R,3R,5S,6S)-6-{(2E,4E)-5-[(3R,5S,7S)-7-(aminomethyl)-1,6-dioxaspiro[2.5]oct-5-yl]-3-methylpenta-2,4-dien-1-yl}-2,5-dimethyltetrahydro-2H-pyran-3-yl]-4-hydroxypent-2-enamide, acetate salt] |  | 6.51 nM | 5.49 nM | 13.4 nM
12 | CC(=O)O[C@@H](C)/C=C\C(=O)N[C@@H]1C[C@H](C)[C@H](C/C=C(C)/C=C/[C@@H]2C[C@]3(CO3)C[C@@H](CN)O2)O[C@@H]1C [#B140, (2S,3Z)-5-{[(2R,3R,5S,6S)-6-{(2E,4E)-5-[(3R,5S,7S)-7-(aminomethyl)-1,6-dioxaspiro[2.5]oct-5-yl]-3-methylpenta-2,4-dien-1-yl}-2,5-dimethyltetrahydro-2H-pyran-3-yl]amino}-5-oxopent-3-en-2-yl acetate, acetate salt] |  | 1.01 nM | 0.517 nM | 0.632 nM
13 | CC(=O)O[C@@H](C)/C=C\C(=O)N[C@@H]1C[C@H](C)[C@H](C/C=C(C)/C=C/[C@H]2O[C@H](CC(=O)N[C@H]3CC[C@H](O)CC3)C[C@@]3(CO3)[C@@H]2O)O[C@@H]1C [#B141, (2S,3Z)-5-{[(2R,3R,5S,6S)-6-{(2E,4E)-5-[(3R,4R,5R,7S)-4-hydroxy-7-{2-[(trans-4-hydroxycyclohexyl)amino]-2-oxoethyl}-1,6-dioxaspiro[2.5]oct-5-yl]-3-methylpenta-2,4-dien-1-yl}-2,5-dimethyltetrahydro-2H-pyran-3-yl]amino}-5-oxopent-3-en-2-yl acetate] |  | 11 nM | 10.9 nM | 12.8 nM
14 | CC(=O)O[C@@H](C)/C=C\C(=O)N[C@@H]1C[C@H](C)[C@H](C/C=C(C)/C=C/[C@H]2O[C@H](CN)C[C@@]3(CO3)[C@@H]2O)O[C@@H]1C [#B147, (2S,3Z)-5-{[(2R,3R,5S,6S)-6-{(2E,4E)-5-[(3R,4R,5R,7S)-7-(aminomethyl)-4-hydroxy-1,6-dioxaspiro[2.5]oct-5-yl]-3-methylpenta-2,4-dien-1-yl}-2,5-dimethyltetrahydro-2H-pyran-3-yl]amino}-5-oxopent-3-en-2-yl acetate, acetate salt] |  | 9.92 nM | 6.81 nM | 17.2 nM
15 | CC(=O)O[C@@H](C)/C=C\C(=O)N[C@@H]1C[C@H](C)[C@H](C/C=C(C)/C=C/[C@@H]2C[C@]3(CO3)C[C@@](C)(O)O2)O[C@@H]1C [#NP12, (2S,3Z)-5-{[(2R,3R,5S,6S)-6-{(2E,4E)-5-[(3R,5S,7S)-7-hydroxy-7-methyl-1,6-dioxaspiro[2.5]oct-5-yl]-3-methylpenta-2,4-dien-1-yl}-2,5-dimethyltetrahydro-2H-pyran-3-yl]amino}-5-oxopent-3-en-2-yl acetate] |  | 13.8 nM | 5.02 nM | 4.91 nM

From patent US9504669B2, “Spliceostatin analogs and methods for their preparation” (PFIZER INC., priority 2012, dated 2016)
